# Experimental data taken from patent publication EP1105395B1, “PHOTOCYCLIZED RAPAMYCINS” (priority 1998, dated 2000).
# Read-outs that look alike come from different tables or passages of the source.
# Legend:
# Type in all cases: cell-based
# Candida zeylanoided = assay: Antifungal activity, microtiter broth dilution MIC; settings: Candida zeylanoided ID 94-15, 35 °C, 24-48 hours
# Experimental: (§1) Antifungal activity for the compounds of this invention was established by evaluating a representative compound of this invention (Compound I) against several strains of fungi. Briefly the following procedure was used to evaluate such activity. A 96 U-bottom microtiter plate was filled (50 µl/well) with RPMI 1640. The compounds to be evaluated were placed in appropriate wells, and serial diluted in successive wells to provide 11 dilutions. The concentrations ranged from 64 through 0.06 µg/ml. An adjusted inoculum of fungi (50 µl) was added to each well and the plates were incubated at 35 °C for 24-48 hours. […]
# Candida lusitaniae = assay: Antifungal activity, microtiter broth dilution MIC; settings: Candida lusitaniae ID 94-3, 35 °C, 24-48 hours
# Experimental: as §1
# Candida krussii = assay: Antifungal activity, microtiter broth dilution MIC; settings: Candida krussii ID 94-2, 35 °C, 24-48 hours
# Experimental: as §1
# Candida albicans = assay: Antifungal activity, microtiter broth dilution MIC; settings: 35 °C, 24-48 hours
# Experimental: as §1
# Aspergillus flavus = assay: Antifungal activity, microtiter broth dilution MIC; settings: Aspergillus flavus ID ATCC 12963, 35 °C, 24-48 hours
# Experimental: as §1
# Cryptococcus neoformans = assay: Antifungal activity, microtiter broth dilution MIC; settings: Cryptococcus neoformans ID ATCC 90112, 35 °C, 24-48 hours
# Experimental: as §1
# Aspergillus niger = assay: Antifungal activity, microtiter broth dilution MIC; settings: Aspergillus niger ID S-430, 35 °C, 24-48 hours
# Experimental: as §1
# Candida rugosa = assay: Antifungal activity, microtiter broth dilution MIC; settings: Candida rugosa ID 94-10, 35 °C, 24-48 hours
# Experimental: as §1
# Candida pseudotropicalis = assay: Antifungal activity, microtiter broth dilution MIC; settings: Candida pseudotropicalis ID ATCC 28838, 35 °C, 24-48 hours
# Experimental: as §1
# Candida glabrata = assay: Antifungal activity, microtiter broth dilution MIC; settings: Candida glabrata ID ATCC 90030, 35 °C, 24-48 hours
# Experimental: as §1
# Aspergillus fumigatus = assay: Antifungal activity, microtiter broth dilution MIC; settings: Aspergillus fumigatus ID ATCC 26933, 35 °C, 24-48 hours
# Experimental: as §1
# Candida parapsilosis = assay: Antifungal activity, microtiter broth dilution MIC; settings: 35 °C, 24-48 hours
# Experimental: as §1
# [1] = tested on: Filobasidiella neoformans; assay: Antifungal activity, microtiter broth dilution MIC; settings: Filobasidiella neoformans ID ATCC 7472, 35 °C, 24-48 hours
# Experimental: as §1
# Saccharomyces cerevisiae = assay: Antifungal activity, microtiter broth dilution MIC; settings: Saccharomyces cerevisiae ID ATCC 2601, 35 °C, 24-48 hours
# Experimental: as §1
# Candida tropicalis = assay: Antifungal activity, microtiter broth dilution MIC; settings: 35 °C, 24-48 hours
# Experimental: as §1
# SKBR3 (breast) = assay: Antineoplastic activity, tumor cell growth inhibition (sulforhodamine B); settings: SKBR3 cells, 48 hours, inhibition of growth
# Source text: (§2) Antineoplastic activity for the compounds of this invention was established by evaluating the antineoplastic activity of a representative compound of this invention (Compound I) against six tumor cell lines in vitro. Briefly, tumor cells from six cell lines were placed in wells of a 96 well microtiter plate. The following tumor cell lines were used: A2780S (ovarian), A2780DDP (ovarian - resistant to cis-platin), A431 (vulva epidermoid origin), SW620 (colon), SKBR3 (breast), and MDA-MB-435 (breast). The tumors cells were grown in the presence of serial dilutions of the compound to be evaluated for 48 hours, and cell growth determined using a colorimetric procedure (sulforhrodamine B). The inhibition of growth was calculated compared to the number of cells at the time of test compound addition. Results are expressed as an IC50 (µg/ml). […] In particular, the compounds of this invention are useful against solid tumors, including sarcomas and carcinomas; and more particularly against astrocytomas, prostate cancer, breast cancer, colon cancer, small cell lung cancer, and ovarian cancer; and adult T-cell leukemia/lymphoma.
# [2] = tested on: A2780DDP (ovarian - resistant to cis-platin); assay: as above; settings: A2780DDP cells, 48 hours, inhibition of growth
# Source text: as §2
# SW620 (colon) = assay: as above; settings: SW620 cells, 48 hours, inhibition of growth
# Source text: as §2
# MDA-MB-435 (breast) = assay: as above; settings: MDA-MB-435 cells, 48 hours, inhibition of growth
# Source text: as §2
# [3] = tested on: A431 (vulva epidermoid origin); assay: as above; settings: A431 cells, 48 hours, inhibition of growth
# Source text: as §2
# A2780S (ovarian) = assay: as above; settings: A2780S cells, 48 hours, inhibition of growth
# Source text: as §2
# [4] = Candida parapsilosis ID ATCC 90018
# [5] = Clavispora lusitaniae, read-out: MIC
# [6] = Candida albicans, ATCC90028, Candida albicans ID ATCC 90028, read-out: MIC
# [7] = Candida albicans, Candida albicans ID 94-1, read-out: MIC
# [8] = Candida albicans, Candida albicans ID 1063, read-out: MIC
# [9] = Candida albicans, Candida albicans ID 1117, read-out: MIC
# [10] = Candida albicans, Candida albicans ID C-83, read-out: MIC
# [11] = Kluyveromyces marxianus, ATCC28838, read-out: MIC
# [12] = Nakaseomyces glabratus, ATCC90030, read-out: MIC
# [13] = Lodderomyces parapsilosis, ATCC90018, Candida parapsilosis ID ATCC 90018, read-out: MIC
# [14] = Lodderomyces parapsilosis, Candida parapsilosis ID 94-8, read-out: MIC
# [15] = Lodderomyces parapsilosis, Candida parapsilosis ID 94-9, read-out: MIC
# [16] = Cryptococcus neoformans, ATCC7472, read-out: MIC
# [17] = Candida tropicalis ID 94-14, read-out: MIC
smiles,measurement,setting,value
C[C@@H]1[C@H](O)[C@@H](C)/C=C/C=C/C=C/C=C/C=C/C=C/C=C/[C@H](O[C@@H]2O[C@H](C)[C@@H](O)[C@H](N)[C@@H]2O)C[C@@H]2O[C@](O)(C[C@@H](O)C[C@@H](O)[C@H](O)CC[C@@H](O)C[C@@H](O)CC(=O)O[C@H]1C)C[C@H](O)[C@H]2C(=O)O [Amphtericin B],MIC,Candida zeylanoided,0.25 µg/mL
same,MIC,Candida lusitaniae,≤0.12 µg/mL
same,MIC,Candida krussii,0.5 µg/mL
same,MIC,Candida albicans; Candida albicans ID 94-1,≤0.12 µg/mL
same,MIC,Candida albicans; Candida albicans ID 1063,0.25 µg/mL
same,MIC,Candida albicans; Candida albicans ID 1117,0.25 µg/mL
same,MIC,Candida albicans; Candida albicans ID ATCC 90028,0.25 µg/mL
same,MIC,Candida albicans; Candida albicans ID C-83,0.25 µg/mL
same,MIC,Aspergillus flavus,2 µg/mL
same,MIC,Cryptococcus neoformans,≤0.12 µg/mL
same,MIC,Aspergillus niger,0.25 µg/mL
same,MIC,Candida rugosa,0.25 µg/mL
same,MIC,Candida pseudotropicalis,0.25 µg/mL
same,MIC,Candida glabrata,0.25 µg/mL
same,MIC,Aspergillus fumigatus,0.25 µg/mL
same,MIC,Candida parapsilosis; Candida parapsilosis ID 94-8,0.25 µg/mL
same,MIC,Candida parapsilosis; Candida parapsilosis ID 94-9,0.5 µg/mL
same,MIC,Candida parapsilosis; [4],≤0.12 µg/mL
same,MIC,[1],0.12 µg/mL
same,MIC,Saccharomyces cerevisiae,≤0.12 µg/mL
same,MIC,Candida tropicalis; Candida tropicalis ID 94-13,0.25 µg/mL
same,MIC,Candida tropicalis; Candida tropicalis ID 94-14,0.25 µg/mL
"CO[C@H]1C[C@@H]2CC[C@@H](C)[C@@](O)(O2)[C@]2(O)C(=O)N3[C@@H](CCC[C@@H]32)C(=O)O[C@H]([C@H](C)C[C@@H]2CC[C@@H](O)[C@H](OC)C2)CC(=O)[C@H](C)/C=C(\C)[C@@H](O)[C@@H](OC)C(=O)[C@H](C)C[C@H](C)/C=C/C=C/C=C/1C [Compound I, (1S, 2R, 3R, 6S, 8S, 9E, 11E, 13E, 15S, 17R, 19R, 20R, 21E, 23R, 26S, 29S, 33R)-1,2, 30-Trihydroxy-26-[(1R)-2-[(1S, 3R, 4R)-4-hydroxy-3-methoxycyclohexyl]-1-methylethyl]-8, 19-dimethoxy-3,9,15, 17, 21, 23-hexamethyl-27, 36-dioxa-35-azatetracyclo[27.4.2.1.[2, 6].0 [33, 35]] hexatriaconta-9, 11, 13, 21-tetraene-18, 24, 28, 34-tetrone]",MIC,Candida zeylanoided,8 µg/mL
same,MIC,Candida lusitaniae,4 µg/mL
same,MIC,Candida albicans; Candida albicans ID 94-1,16 µg/mL
same,MIC,Candida albicans; Candida albicans ID 1063,16 µg/mL
same,MIC,Candida albicans; Candida albicans ID 1117,32 µg/mL
same,MIC,Candida albicans; Candida albicans ID ATCC 90028,16 µg/mL
same,MIC,Candida albicans; Candida albicans ID C-83,≥64 µg/mL
same,MIC,Aspergillus flavus,≥64 µg/mL
same,MIC,Cryptococcus neoformans,8 µg/mL
same,MIC,Aspergillus niger,≥64 µg/mL
same,MIC,Candida rugosa,16 µg/mL
same,MIC,Candida pseudotropicalis,4 µg/mL
same,MIC,Candida glabrata,8 µg/mL
same,MIC,Aspergillus fumigatus,≥64 µg/mL
same,MIC,Candida parapsilosis; Candida parapsilosis ID 94-8,8 µg/mL
same,MIC,Candida parapsilosis; Candida parapsilosis ID 94-9,8 µg/mL
same,MIC,Candida parapsilosis; [4],8 µg/mL
same,MIC,[1],≥64 µg/mL
same,MIC,Saccharomyces cerevisiae,8 µg/mL
same,MIC,Candida tropicalis; Candida tropicalis ID 94-13,16 µg/mL
same,MIC,Candida tropicalis; Candida tropicalis ID 94-14,8 µg/mL
same,IC50,SKBR3 (breast),7.029 µg/mL
same,IC50,[2],6.51 µg/mL
same,IC50,SW620 (colon),24.84 µg/mL
same,IC50,MDA-MB-435 (breast),27.28 µg/mL
same,IC50,[3],20.46 µg/mL
same,IC50,A2780S (ovarian),8.756 µg/mL
OC(Cn1cncn1)(Cn1cncn1)c1ccc(F)cc1F [Fluconazole],MIC,Candida zeylanoided; read-out: MIC,≥ 16 µg/mL
same,MIC,Candida lusitaniae; [5],1 µg/mL
same,MIC,Candida krussii; read-out: MIC,≥ 16 µg/mL
same,MIC,Candida albicans; [6],≥ 16 µg/mL
same,MIC,Candida albicans; [7],≥ 16 µg/mL
same,MIC,Candida albicans; [8],4 µg/mL
same,MIC,Candida albicans; [9],8 µg/mL
same,MIC,Candida albicans; [10],≥ 16 µg/mL
same,MIC,"Aspergillus flavus; ATCC12963, read-out: MIC",> 16 µg/mL
same,MIC,"Cryptococcus neoformans; ATCC90112, read-out: MIC",8 µg/mL
same,MIC,Aspergillus niger; read-out: MIC,> 16 µg/mL
same,MIC,"Candida rugosa; Diutina rugosa, read-out: MIC",2 µg/mL
same,MIC,Candida pseudotropicalis; [11],≤ 0.12 µg/mL
same,MIC,Candida glabrata; [12],4 µg/mL
same,MIC,"Aspergillus fumigatus; ATCC26933, read-out: MIC",> 16 µg/mL
same,MIC,Candida parapsilosis; [13],0.5 µg/mL
same,MIC,Candida parapsilosis; [14],0.5 µg/mL
same,MIC,Candida parapsilosis; [15],0.5 µg/mL
same,MIC,[1]; [16],16 µg/mL
same,MIC,"Saccharomyces cerevisiae; ATCC2601, read-out: MIC",8 µg/mL
same,MIC,Candida tropicalis; Candida tropicalis ID 94-13,≥16 µg/mL
same,MIC,Candida tropicalis; [17],≥ 16 µg/mL
Clc1ccc(COC(Cn2ccnc2)c2ccc(Cl)cc2Cl)c(Cl)c1 (stereo not shown) [Miconazole],MIC,Candida zeylanoided; read-out: MIC,0.25 µg/mL
same,MIC,Candida lusitaniae; [5],≤ 0.12 µg/mL
same,MIC,Candida krussii; read-out: MIC,2 µg/mL
same,MIC,Candida albicans; [6],0.5 µg/mL
same,MIC,Candida albicans; [7],8 µg/mL
same,MIC,Candida albicans; [8],1 µg/mL
same,MIC,Candida albicans; [9],1 µg/mL
same,MIC,Candida albicans; [10],8 µg/mL
same,MIC,"Aspergillus flavus; ATCC12963, read-out: MIC",0.5 µg/mL
same,MIC,"Cryptococcus neoformans; ATCC90112, read-out: MIC",≤ 0.12 µg/mL
same,MIC,Aspergillus niger; read-out: MIC,4 µg/mL
same,MIC,"Candida rugosa; Diutina rugosa, read-out: MIC",≤ 0.12 µg/mL
same,MIC,Candida pseudotropicalis; [11],≤ 0.12 µg/mL
same,MIC,Candida glabrata; [12],≤ 0.12 µg/mL
same,MIC,"Aspergillus fumigatus; ATCC26933, read-out: MIC",1 µg/mL
same,MIC,Candida parapsilosis; [13],≤ 0.12 µg/mL
same,MIC,Candida parapsilosis; [14],0.25 µg/mL
same,MIC,Candida parapsilosis; [15],0.5 µg/mL
same,MIC,[1]; [16],0.25 µg/mL
same,MIC,"Saccharomyces cerevisiae; ATCC2601, read-out: MIC",≤ 0.12 µg/mL
same,MIC,Candida tropicalis; Candida tropicalis ID 94-13,4 µg/mL
same,MIC,Candida tropicalis; [17],4 µg/mL
C[C@@H]1[C@H](O)[C@@H](C)/C=C/C=C/CC/C=C/C=C/C=C/C=C/C(O[C@H]2O[C@H](C)[C@@H](O)[C@H](N)[C@@H]2O)CC2O[C@](O)(CC(O)C(O)CCC(O)CC(O)CC(O)CC(=O)O[C@H]1C)CC(O)C2C(=O)O (stereo partly shown) [Nystatin],MIC,Candida zeylanoided,1 µg/mL
same,MIC,Candida lusitaniae,1 µg/mL
same,MIC,Candida krussii,2 µg/mL
same,MIC,Candida albicans; Candida albicans ID 94-1,2.0 µg/mL
same,MIC,Candida albicans; Candida albicans ID 1063,2 µg/mL
same,MIC,Candida albicans; Candida albicans ID 1117,1 µg/mL
same,MIC,Candida albicans; Candida albicans ID ATCC 90028,1 µg/mL
same,MIC,Candida albicans; Candida albicans ID C-83,2 µg/mL
same,MIC,Aspergillus flavus,≥16 µg/mL
same,MIC,Cryptococcus neoformans,0.5 µg/mL
same,MIC,Aspergillus niger,4 µg/mL
same,MIC,Candida rugosa,2 µg/mL
same,MIC,Candida pseudotropicalis,1 µg/mL
same,MIC,Candida glabrata,1 µg/mL
same,MIC,Aspergillus fumigatus,1 µg/mL
same,MIC,Candida parapsilosis; Candida parapsilosis ID 94-8,1 µg/mL
same,MIC,Candida parapsilosis; Candida parapsilosis ID 94-9,1 µg/mL
same,MIC,Candida parapsilosis; [4],1 µg/mL
same,MIC,[1],0.5 µg/mL
same,MIC,Saccharomyces cerevisiae,2 µg/mL
same,MIC,Candida tropicalis; Candida tropicalis ID 94-13,1 µg/mL
same,MIC,Candida tropicalis; Candida tropicalis ID 94-14,2 µg/mL
